Data: patent US8871767B2, “2-arylimidazo[1,2-B]pyridazine, 2-phenylimidazo[1,2-A]pyridine, and 2-phenylimidazo[1,2-A]pyrazine derivatives” (Hengrui (USA) Ltd., priority 2010, dated 2014)

test system: Hedgehog pathway activation (GLi-luciferase reporter) in Shh Light II reporter cells; test: Hedgehog pathway activation on Shh Light II reporter cells measured by luciferase activity; format: cell-based; conditions: Mus musculus, Shh Light II, hShh activation, read-out: Shh (IC50, inhibition of Hedgehog pathway activation)
Description: Hedgehog conditioned media was obtained by transfecting 293H cells with the full length gene encoding human Sonic Hedgehog (hShh) inserted into the pCMV6 expression vector, which contains a neomycin selectable marker and expresses the protein of interest with a C-terminal FLAG affinity tag. After selection in G418 containing media, conditioned media from Hedgehog expressing clones were tested for the ability to activate the hedgehog-responsive GLi-luciferase reporter in the Shh Light II cell line obtained by license from John Hopkins University (Taipale J, et al. Effects of oncogenic mutations in Smoothened and Patched can be reversed by cyclopamine. Nature 406: 1005-1009, 2000).
A test compound library was screened against hShh and 500 nM SAG (a direct agonist of the Smoothened receptor) activated 10T1/2/Smo#3 cells and Shh Light II reporter cells for the ability to block Hedgehog pathway activation. Concurrently, cell viability was measured by utilizing Celltiter-Blue® (Promega, Madison Wis.) viability assay. Active compounds were defined as those that inhibited Hedgehog signaling by greater than 50% with no concurrent loss in cell viability.
Their inhibitory activity against Hedgehog pathway activation on 10T1/2/Smo#3 cells as measured by ALP activity and Shh Light II reporter cells as measured by luciferase activity is shown in Table 1 below. In Table 1, +++ stands for an IC50 value that is less than 0.3 μM, ++ between 0.3 and 3 μM, + between 3 and 30 μM.
Additional data for compounds of the invention is shown below in Table 2. Their inhibitory activities against Hedgehog pathway activation are shown as IC50 values in μM on 10T1/2/Smo#3 cells as measured by ALP activity, or on Shh Light II reporter cells as measured by luciferase activity (hShh activation).

Structure (SMILES)	IC50 [nM]
COc1ccc2nc(-c3ccc(C)c(NC(=O)c4ccc(S(C)(=O)=O)cc4Cl)c3)cn2n1 [Example 95, 2-chloro-N-(5-(6-methoxyimidazo[1,2-b]pyridazin-2-yl)-2-methylphenyl)-4-(methylsulfonyl)benzamide]	7860
Cc1ccc(F)c(-c2ccc3nc(-c4ccc(C(F)(F)F)c(NC(=O)C(C)(C)C)c4)cn3n2)c1 [Example 226, N-(5-(6-(2-fluoro-5-methylphenyl)imidazo[1,2-b]pyridazin-2-yl)-2-(trifluoromethyl)phenyl)pivalamide]	1480
COc1ccc(F)c(-c2ccc3nc(-c4ccc(C(F)(F)F)c(NC(=O)C(C)(C)C)c4)cn3n2)c1 [Example 228, N-(5-(6-(2-fluoro-5-methoxyphenyl)imidazo[1,2-b]pyridazin-2-yl)-2-(trifluoromethyl)phenyl)pivalamide]	325
COc1cccc(-c2ccc3nc(-c4ccc(C(F)(F)F)c(NC(=O)C(C)(C)C)c4)cn3n2)c1 [Example 229, N-(5-(6-(3-methoxyphenyl)imidazo[1,2-b]pyridazin-2-yl)-2-(trifluoromethyl)phenyl)pivalamide]	313
CC(C)(C)C(=O)Nc1cc(-c2cn3nc(-c4cccs4)ccc3n2)ccc1C(F)(F)F [Example 230, N-(5-(6-(thiophen-2-yl)imidazo[1,2-b]pyridazin-2-yl)-2-(trifluoromethyl)phenyl)pivalamide]	1550
Cc1ccc(-c2cn3nc(-c4cc(CO)ccc4F)ccc3n2)cc1NC(=O)C(C)(C)C [Example 275, N-(5-(6-(2-fluoro-5-(hydroxymethyl)phenyl)imidazo[1,2-b]pyridazin-2-yl)-2-methylphenyl)pivalamide]	1800
Cc1ccc(-c2cn3nc(-c4ccccc4O)ccc3n2)cc1NC(=O)C(C)(C)C [Example 276, N-(5-(6-(2-hydroxyphenyl)imidazo[1,2-b]pyridazin-2-yl)-2-methylphenyl)pivalamide]	1960
Cc1ccc(-c2cn3nc(N4CCC(F)(F)C4)ccc3n2)cc1NC(=O)C(C)(C)C [Example 277, N-(5-(6-(3,3-difluoropyrrolidin-1-yl)imidazo[1,2-b]pyridazin-2-yl)-2-methylphenyl)pivalamide]	350
Cc1ccc(-c2cn3nc(N4CCC(F)(F)CC4)ccc3n2)cc1NC(=O)C(C)(C)C [Example 282, N-(5-(6-(4,4-difluoropiperidin-1-yl)imidazo[1,2-b]pyridazin-2-yl)-2-methylphenyl)pivalamide]	1450
CC(C)(C)C(=O)Nc1cc(-c2cn3nc(NC4CCC(O)CC4)ccc3n2)ccc1C(F)(F)F (centres unmarked) [Example 314, N-(5-(6-(4-hydroxycyclohexylamino)imidazo[1,2-b]pyridazin-2-yl)-2-(trifluoromethyl)phenyl)pivalamide]	346
CC(C)(C)C(=O)Nc1cc(-c2cn3nc(N4CC(F)(F)C4)ccc3n2)ccc1C(F)(F)F [Example 315, N-(5-(6-(3,3-difluoroazetidin-1-yl)imidazo[1,2-b]pyridazin-2-yl)-2-(trifluoromethyl)phenyl)pivalamide]	807
CN1CCN(c2ccc3nc(-c4ccc(C(F)(F)F)c(NC(=O)C(C)(C)C)c4)cn3n2)CC1 [Example 316, N-(5-(6-(4-methylpiperazin-1-yl)imidazo[1,2-b]pyridazin-2-yl)-2-(trifluoromethyl)phenyl)pivalamide]	937
CCN1CCN(c2ccc3nc(-c4ccc(C(F)(F)F)c(NC(=O)C(C)(C)C)c4)cn3n2)CC1 [Example 317, N-(5-(6-(4-ethylpiperazin-1-yl)imidazo[1,2-b]pyridazin-2-yl)-2-(trifluoromethyl)phenyl)pivalamide]	1250
CC(C)(C)C(=O)Nc1cc(-c2cn3nc(N4CCC(N)C4)ccc3n2)ccc1C(F)(F)F (centres unmarked) [Example 318, N-(5-(6-(3-aminopyrrolidin-1-yl)imidazo[1,2-b]pyridazin-2-yl)-2-(trifluoromethyl)phenyl)pivalamide]	203
C#Cc1ccc(-c2cn3nc(-c4ccccc4F)ccc3n2)cc1N [Example 320, 2-ethynyl-5-(6-(2-fluorophenyl)imidazo[1,2-b]pyridazin-2-yl)aniline]	9260
Cc1ccc(-c2cn3nc(-c4ccc(C(F)(F)F)nc4)ccc3n2)cc1NC(=O)C(C)(C)C [Example 322, N-(2-methyl-5-(6-(6-(trifluoromethyl)pyridin-3-yl)imidazo[1,2-b]pyridazin-2-yl)phenyl)pivalamide]	917
CC(C)(C)C(=O)Nc1cc(-c2cn3nc(-c4cccc(CO)c4)ccc3n2)ccc1C(F)(F)F [Example 323, N-(5-(6-(3-(hydroxymethyl)phenyl)imidazo[1,2-b]pyridazin-2-yl)-2-(trifluoromethyl)phenyl)pivalamide]	2580

Second part, the molecule after the results:

IC50 [nM]	Structure (SMILES)
1460	CC(C)c1ccccc1-c1ccc2nc(-c3ccc(C(F)(F)F)c(NC(=O)C(C)(C)C)c3)cn2n1 [Example 324, N-(5-(6-(2-isopropylphenyl)imidazo[1,2-b]pyridazin-2-yl)-2-(trifluoromethyl)phenyl)pivalamide]
740	CC(C)(C)C(=O)Nc1cc(-c2cn3nc(-c4cccc(S(C)(=O)=O)c4)ccc3n2)ccc1C(F)(F)F [Example 325, N-(5-(6-(3-(methylsulfonyl)phenyl)imidazo[1,2-b]pyridazin-2-yl)-2-(trifluoromethyl)phenyl)pivalamide]
217	Cc1noc(C)c1-c1ccc2nc(-c3ccc(C(F)(F)F)c(NC(=O)C(C)(C)C)c3)cn2n1 [Example 326, N-(5-(6-(3,5-dimethylisoxazol-4-yl)imidazo[1,2-b]pyridazin-2-yl)-2-(trifluoromethyl)phenyl)pivalamide]
484	CC(C)(C)OC(=O)N1CCN(c2ccc3nc(-c4ccc(C(F)(F)F)c(NC(=O)C(C)(C)C)c4)cn3n2)CC1 [Example 327, tert-butyl 4-(2-(3-pivalamido-4-(trifluoromethyl)phenyl)imidazo[1,2-b]pyridazin-6-yl)piperazine-1-carboxylate]
3540	CC(C)(C)C(=O)Nc1cc(-c2cn3nc(N4CCNCC4)ccc3n2)ccc1C(F)(F)F [Example 328, N-(5-(6-(piperazin-1-yl)imidazo[1,2-b]pyridazin-2-yl)-2-(trifluoromethyl)phenyl)pivalamide]
2020	CC1CNCCN1c1ccc2nc(-c3ccc(C(F)(F)F)c(NC(=O)C(C)(C)C)c3)cn2n1 (centres unmarked) [Example 329, N-(5-(6-(2-methylpiperazin-1-yl)imidazo[1,2-b]pyridazin-2-yl)-2-(trifluoromethyl)phenyl)pivalamide]
676	CC(C)(C)C(=O)Nc1cc(-c2cn3nc(NC4CCNCC4)ccc3n2)ccc1C(F)(F)F [Example 330, N-(5-(6-(piperidin-4-ylamino)imidazo[1,2-b]pyridazin-2-yl)-2-(trifluoromethyl)phenyl)pivalamide]
478	CC(C)(C)OC(=O)NC1CCN(c2ccc3nc(-c4ccc(C(F)(F)F)c(NC(=O)C(C)(C)C)c4)cn3n2)CC1 [Example 331, tert-butyl 1-(2-(3-pivalamido-4-(trifluoromethyl)phenyl)imidazo[1,2-b]pyridazin-6-yl)piperidin-4-ylcarbamate]

same assay, conditions: hShh activation, read-out: Shh (IC50, inhibition of Hedgehog pathway activation)

IC50 [nM]	Structure (SMILES)
347	CC(C)(C)C(=O)Nc1cc(-c2cn3nc(N4CCC(N)C4)ccc3n2)ccc1C(F)(F)F (centres unmarked) [Example 319, N-(5-(6-(3-aminopyrrolidin-1-yl)imidazo[1,2-b]pyridazin-2-yl)-2-(trifluoromethyl)phenyl)pivalamide]
